Where two headings read alike, the source gives them in different places.
Columns and labels:
[1] = tested on: T. gondii RH strain (RH-Tub-eYFP) tachyzoites; test: microbe, parasite or virus in culture; assay type: cell-based, Toxoplasma gondii; settings: 72 h, 72 h; for percent parasite growth at 2 µg/mL: Toxoplasma gondii, screen at 2 μg/mL; for Tg_72h_%Growth_Rep1 / Tg_72h_%Growth_Rep2: % growth
[2] = tested on: P. falciparum 3D7 parasites; test: P. falciparum growth inhibition assay, 2-cycle (120 h treatment), delayed-death screen and dose-response; assay type: cell-based, Plasmodium falciparum; settings: for activity at 2 µg/mL: Plasmodium falciparum, screen at 2 μg/mL; for Pf_120h_%Growth_Rep1 / Pf_120h_%Growth_Rep2: % growth
[3] = tested on: P. falciparum 3D7 parasites; test: P. falciparum growth inhibition assay, 1-cycle (72 h treatment), SYBR DNA staining (library screen at 2 μg/mL and dose-response); assay type: cell-based, Plasmodium falciparum; settings: for activity at 2 µg/mL: Plasmodium falciparum, screen at 2 μg/mL; for Pf_72h_%Growth_Rep1 / Pf_72h_%Growth_Rep2: % growth
[4] = T. gondii, replicate 1, read-out: Tg_72h_%Growth_Rep1
[5] = T. gondii, replicate 2, read-out: Tg_72h_%Growth_Rep2
[6] = T. gondii, parasite screen 2 μg/mL, replicate 1
[7] = T. gondii, parasite screen 2 μg/mL, replicate 2
[8] = P. falciparum, 120 h, parasite screen 2 μg/mL, replicate 1
[9] = P. falciparum, 120 h, parasite screen 2 μg/mL, replicate 2
[10] = P. falciparum, 72 h, parasite screen 2 μg/mL, replicate 1
[11] = P. falciparum, 72 h, parasite screen 2 μg/mL, replicate 2
[12] = library screen at 2 μg/mL, replicate 1
[13] = library screen at 2 μg/mL, replicate 2
[14] = library screen at 2 μg/mL, 120 h, replicate 1
[15] = library screen at 2 μg/mL, 120 h, replicate 2
[16] = library screen at 2 μg/mL, 72 h, replicate 1
[17] = library screen at 2 μg/mL, 72 h, replicate 2

C[C@@H]1C[C@H](C)C[C@H](C)[C@@H](O)CC(=O)O[C@H]([C@@H]2CCC[C@H]2C(=O)O)C/C=C/C=C(/C#N)[C@H](O)[C@@H](C)C1 [Borrelidin]
percent parasite growth at 2 µg/mL [1, 4]: 0.76%
percent parasite growth at 2 µg/mL [1, 5]: 1.62%
activity at 2 µg/mL ([2]; 3D7, P. falciparum, 120 h, replicate 1, read-out: Pf_120h_%Growth_Rep1): 4.36%
activity at 2 µg/mL ([2]; 3D7, P. falciparum, 120 h, replicate 2, read-out: Pf_120h_%Growth_Rep2): 5.57%
activity at 2 µg/mL ([3]; 3D7, P. falciparum, 72 h, replicate 1, read-out: Pf_72h_%Growth_Rep1): 2.87%
activity at 2 µg/mL ([3]; 3D7, P. falciparum, 72 h, replicate 2, read-out: Pf_72h_%Growth_Rep2): -1.49%

CC(C)=CCCC(C)C1CCC2(C)CC3C(C(=O)CC3(C)O)C(C=O)=CCC12 (stereo not drawn) [BIA-O1199]
Tg_72h_%Growth_Rep1 ([1]; T. gondii, parasite screen at 2 μg/mL, replicate 1): 7.63%
Tg_72h_%Growth_Rep2 ([1]; T. gondii, parasite screen at 2 μg/mL, replicate 2): 89.80%
Pf_120h_%Growth_Rep1 ([2]; P. falciparum 3D7, 120 h, parasite screen at 2 μg/mL, replicate 1): 3.94%
Pf_120h_%Growth_Rep2 ([2]; P. falciparum 3D7, 120 h, parasite screen at 2 μg/mL, replicate 2): 138.56%
Pf_72h_%Growth_Rep1 ([3]; P. falciparum 3D7, 72 h, parasite screen at 2 μg/mL, replicate 1): -0.50%
Pf_72h_%Growth_Rep2 ([3]; P. falciparum 3D7, 72 h, parasite screen at 2 μg/mL, replicate 2): -3.29%

O=c1c2cccn2c(=O)c2cccn12 [Pyrocoll]
Tg_72h_%Growth_Rep1 [1, 6]: 94.37%
Tg_72h_%Growth_Rep2 [1, 7]: 83.97%
Pf_120h_%Growth_Rep1 [2, 8]: 85.16%
Pf_120h_%Growth_Rep2 [2, 9]: 138.60%
Pf_72h_%Growth_Rep1 [3, 10]: 84.60%
Pf_72h_%Growth_Rep2 [3, 11]: 82.90%

O=C(N[C@H](CO)[C@H](O)c1ccc([N+](=O)[O-])cc1)C(Cl)Cl [Chloramphenicol]
percent parasite growth at 2 µg/mL [1, 4]: 86.7%
percent parasite growth at 2 µg/mL [1, 5]: 85.3%
activity at 2 µg/mL ([2]; 3D7, 120 h, P. falciparum, 120 h, replicate 1, read-out: Pf_120h_%Growth_Rep1): 117%
activity at 2 µg/mL ([2]; 3D7, 120 h, P. falciparum, 120 h, replicate 2, read-out: Pf_120h_%Growth_Rep2): 64.9%
activity at 2 µg/mL ([3]; 3D7, 72 h, P. falciparum, 72 h, replicate 1, read-out: Pf_72h_%Growth_Rep1): 85.8%
activity at 2 µg/mL ([3]; 3D7, 72 h, P. falciparum, 72 h, replicate 2, read-out: Pf_72h_%Growth_Rep2): 84.9%

CC[C@@H](C(=O)[C@@H](C)[C@@H](O)[C@H](C)[C@@H]1O[C@@H]([C@@H](CC)C(=O)O)CC[C@@H]1C)[C@H]1O[C@]2(C=C[C@@H](O)[C@]3(CC[C@@](C)([C@H]4CC[C@](O)(CC)[C@H](C)O4)O3)O2)[C@H](C)C[C@@H]1C [Salinomycin sodium]
Tg_72h_%Growth_Rep1 [1, 6]: 1.25%
Tg_72h_%Growth_Rep2 [1, 7]: 0.43%
Pf_120h_%Growth_Rep1 [2, 8]: 8.77%
Pf_120h_%Growth_Rep2 [2, 9]: -2.16%
Pf_72h_%Growth_Rep1 [3, 10]: 3.74%
Pf_72h_%Growth_Rep2 [3, 11]: -3.65%

Elaiophylin
Tg_72h_%Growth_Rep1 [1, 12]: -0.18%
Tg_72h_%Growth_Rep2 [1, 13]: 0.99%
Pf_120h_%Growth_Rep1 [2, 14]: 18.08%
Pf_120h_%Growth_Rep2 [2, 15]: 22.72%
Pf_72h_%Growth_Rep1 [3, 16]: 6.63%
Pf_72h_%Growth_Rep2 [3, 17]: 7.41%

CC[C@H]1OC(=O)[C@H](C)[C@@H](O[C@H]2C[C@@](C)(OC)[C@@H](O)[C@H](C)O2)[C@H](C)[C@@H](O[C@@H]2O[C@H](C)C[C@H]([N+](C)(C)[O-])[C@H]2O)[C@](C)(O)C[C@@H](C)C(=O)[C@H](C)[C@@H](O)[C@]1(C)O [Erythromycin A N-oxide]
Tg_72h_%Growth_Rep1 [1, 12]: 107.95%
Tg_72h_%Growth_Rep2 [1, 13]: 98.15%
Pf_120h_%Growth_Rep1 [2, 14]: 82.07%
Pf_120h_%Growth_Rep2 [2, 15]: 80.30%
Pf_72h_%Growth_Rep1 [3, 16]: 82.02%
Pf_72h_%Growth_Rep2 [3, 17]: 85.53%

CC[C@H]1OC(=O)[C@H](C)[C@@H](O[C@H]2C[C@@](C)(OC)[C@@H](O)[C@H](C)O2)[C@H](C)[C@@H](O[C@@H]2O[C@H](C)C[C@H](N(C)C)[C@H]2O)[C@@]2(C)CC(C)=C(O2)[C@H](C)[C@@H](O)[C@]1(C)O [Erythromycin A enol ether]
Tg_72h_%Growth_Rep1 [1, 12]: 90.78%
Tg_72h_%Growth_Rep2 [1, 13]: 86.46%
Pf_120h_%Growth_Rep1 [2, 14]: 47.90%
Pf_120h_%Growth_Rep2 [2, 15]: 73.68%
Pf_72h_%Growth_Rep1 [3, 16]: 65.76%
Pf_72h_%Growth_Rep2 [3, 17]: 86.36%

COc1ccc(-c2coc3cc(O)cc(O)c3c2=O)cc1 [Biochanin A]
Tg_72h_%Growth_Rep1 [1, 12]: 75.87%
Tg_72h_%Growth_Rep2 [1, 13]: 92.06%
Pf_120h_%Growth_Rep1 [2, 14]: 158.83%
Pf_120h_%Growth_Rep2 [2, 15]: 100.13%
Pf_72h_%Growth_Rep1 [3, 16]: 105.15%
Pf_72h_%Growth_Rep2 [3, 17]: 90.67%

From PMC12396409, “Screening and hit evaluation of a microbial metabolite library against the pathogenic Plasmodium falciparum and Toxoplasma gondii parasites” (International Journal for Parasitology: Drugs and Drug …, 2025)
